Measurements as given in patent US20140315943A1, “COMBINATION THERAPY OF HSP90 INHIBITORY COMPOUNDS WITH MTOR/P13K INHIBITORS” (SYNTA PHARMACEUTICALS CORP., priority 2011, published 2014).
Read-outs that look alike come from different tables or passages of the source.

What was measured:
[1] = tested on: androgen receptor, AKT, PARP; assay: Western blot in LNCaP cells: androgen receptor, AKT, PARP cleavage; assay type: cell-based; conditions: FIG. 2
Excerpt: (§1) Cells, treated with compound for 24 hr, were lysed in RIPA buffer (CST, Danvers, Mass., USA) on ice and clarified by centrifugation. Equal amounts of proteins were resolved by SDS-PAGE and immunoblotted with indicated antibodies. The antigen-antibody complex was visualized and quantitated using an Odyssey system (LI-COR, Lincoln, Nebr., USA).

4EBP1 = assay: Western blot, 4EBP1 dephosphorylation; assay type: cell-based; conditions: A375 melanoma cells
Experimental: (§2) A375 melanoma cells (BRAF^V600E mutant) were purchased from the American Type Culture Collection (Manassas, Va.) and grown in RPMI or DMEM, in the presence of fetal bovine serum (10%), 2 mM L-glutamine and antibiotics (100 IU/ml penicillin and […] streptomycin) purchased from Sigma Aldrich. Cells were maintained at 37° C., 5% CO2 atmosphere.
as §1

AKT and ERK = assay: Western blot of signaling pathways, AKT and ERK activity; assay type: cell-based; conditions: A375 melanoma cells
Experimental: as §2, §1

MEK = assay: Western blot, feedback activation of MEK; assay type: cell-based; conditions: melanoma cells, FIG. 5
Experimental: as §2, §1

B-raf = conditions: cited from earlier work
[2] = tested on: androgen receptor (AR), Akt; assay: Everolimus-induced AR expression and Akt activity, apoptosis (FIG. 1); assay type: cell-based; conditions: in combination with everolimus
Excerpt: as §1

Row | Compound | Akt deactivation [1] | dephosphorylation of 4EBP1 (4EBP1) | AKT and ERK activity (AKT and ERK) | feedback activation of MEK (MEK) | B-raf degradation (B-raf; A375 (V600E) versus CHL cells (wild type B-raf)) | B-raf degradation (B-raf; B-raf mutants E586K and L597V) | B-raf degradation (B-raf; B-raf mutants V600D, G469A, G469E, G596R, G466V, G594V in COS cells) | Inhibition of AKT (AKT and ERK; Western blot, FIG. 4) | apoptosis [2] | everolimus-induced AR expression and Akt activity [2]
1 | Cn1c(=O)n(-c2ccc(C(C)(C)C#N)cc2)c2c3cc(-c4cnc5ccccc5c4)ccc3ncc21 [BEZ235, 2-methyl-2-[4-[3-methyl-2-oxo-8-(quinolin-3-yl)-2,3-dihydroimidazo[4,5-c]quinolin-1-yl]phenyl]propionitrile] | able to deactivate Akt | sufficient to dephosphorylate 4EBP1 | enhanced the activity of AKT and ERK | feedback activation of MEK observed | – | – | – | – | – | –
2 | C=CCNC1=C2C[C@@H](C)C[C@H](OC)[C@H](O)[C@@H](C)/C=C(\C)[C@H](OC(N)=O)[C@@H](OC)/C=C\C=C(/C)C(=O)NC(=CC1=O)C2=O [Compound 17AAG] | – | – | – | – | B-raf was degraded more rapidly than in CHL cells | not sensitive to degradation | degraded more rapidly than wild type B-raf | – | – | –
3 | CC(C)c1cc(-c2nnc(O)n2-c2ccc3c(ccn3C)c2)c(O)cc1O [ganetespib, 3-(2,4-DIHYDROXY-5- ISOPROPYL-PHENYL)-4-(1- METHYL-INDOL-5-YL)-5- HYDROXY-[1,2,4] TRIAZOLE] | – | could not completely dephosphorylate 4EBP1 | effective in disrupting AKT and ERK activity | – | – | – | – | blocked by lower concentrations of ganetespib compared to BEZ-235 | increased apoptosis | sufficient in blocking everolimus-induced AR expression and Akt activity
